Assay results reported in patent publication US10975037B2 (priority 2018, dated 2021).
Where two headings read alike, the source gives them in different places. Blank lines part the entries; values can stand above or below the molecule they belong to.

Assays:
[1] = target: human RORγt ligand binding domain (RORγt LBD) (Homo sapiens (Human), UniProt P51449); assay: RORγt ThermoFluor® assay (thermal shift binding)
Method: This approach is applicable to a wide variety of systems, and rigorous in theoretical interpretation through quantitation of equilibrium binding constants (KD).
The shift in the melting point described as a ΔTm is proportional to the concentration and affinity of the ligand.
RORγt ThermoFluor® Assay Construct
Reference wells contained RORγt without compounds, and the assay conditions were as follows: • 0.065 mg/mL RORγt • 60 μM 1,8-ANS • 100 mM Hepes, pH 7.0 • 10 mM NaCl • 2.5 mM GSH • 0.002% Tween-20
Project compounds were arranged in a pre-dosed mother plate (Greiner Bio-one) wherein compounds are serially diluted in 100% DMSO by 1:2 from a high concentration of 10 mM over 12 columns within a series (column 12 is a reference well containing DMSO, no compound). The compounds were robotically dispensed directly into assay plates (1×=46 nL) using a Hummingbird capillary liquid handling instrument (Digilab). Following compound dispense, protein and dye in buffer was added to achieve the final assay volume of 3 μL, followed by 1 μL of silicone oil.

full-length human RORγt = full-length human RORγt (Homo sapiens (Human), UniProt P51449); assay: RORγt (full-length human) reporter assay, conditions A or B, HEK293T cells; type: cell-based; conditions: for IC50: RORγt (FL) Reporter Assay A or B, IC50, HEK293T cells; for inhibition at 0.67 µM: 0.67 μM compound concentration (footnote ****); for inhibition at 2 µM: 2 μM compound concentration
Chain of full-length human RORγt (P51449 other isoform, or with tags, fused parts or gaps): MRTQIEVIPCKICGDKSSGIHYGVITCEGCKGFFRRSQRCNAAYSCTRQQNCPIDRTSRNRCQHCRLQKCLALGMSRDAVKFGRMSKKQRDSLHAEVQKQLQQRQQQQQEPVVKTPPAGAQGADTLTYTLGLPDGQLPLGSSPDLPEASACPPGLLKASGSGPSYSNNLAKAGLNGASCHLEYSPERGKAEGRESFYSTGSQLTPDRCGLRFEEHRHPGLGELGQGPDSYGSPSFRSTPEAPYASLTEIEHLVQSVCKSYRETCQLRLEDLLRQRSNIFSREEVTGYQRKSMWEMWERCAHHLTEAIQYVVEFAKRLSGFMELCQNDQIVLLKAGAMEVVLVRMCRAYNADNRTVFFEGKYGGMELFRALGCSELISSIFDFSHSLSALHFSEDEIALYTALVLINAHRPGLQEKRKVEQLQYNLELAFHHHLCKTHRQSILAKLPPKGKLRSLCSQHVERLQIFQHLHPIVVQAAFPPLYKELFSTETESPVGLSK
Method: RORγt (Full-Length Human) Reporter Assay:
(§1) HEK293T cells were plated at 35,000 per well in 96-well plate in medium of DMEM with 10% FBS. […] After overnight (16 to 20 hours) incubation, media were removed and cells were lysed with 50 L Glo Lysis Buffer (Promega) for 10-15 minutes followed by 10 minute incubation with 50 μL Dual Glo reagent (Promega) at room temperature. Firefly luciferase luminescence was measured using a BMG Pherastar plate reader. To each well, 50 μL Stop and Glo reagent was added and incubated for 10 minutes at room temperature. Renilla luminescence was measured using a BMG Pherastar plate reader. To calculate the effect of compounds on RORγt activity, firefly values were normalized against values of DMSO only and values of reference compound at saturating concentration, then further normalized against Renilla signals. IC50s were generated by plotting final Renilla normalized data against compound concentration and percent inhibition was calculated against DMSO control.
as §1, with “at 8750 cells” for “at 35,000”, “in 384-well” for “in 96-well”, “with 20” for “with 50”, “well, 20” for “well, 50”

[2] = read-out: ThermoFluor® Assay, Kd
[3] = HEK-293T, read-out: RORγt (FL) Reporter Assay A or B, % inhibition

Chain of human RORγt ligand binding domain (RORγt LBD) (P51449 other isoform, or with tags, fused parts or gaps): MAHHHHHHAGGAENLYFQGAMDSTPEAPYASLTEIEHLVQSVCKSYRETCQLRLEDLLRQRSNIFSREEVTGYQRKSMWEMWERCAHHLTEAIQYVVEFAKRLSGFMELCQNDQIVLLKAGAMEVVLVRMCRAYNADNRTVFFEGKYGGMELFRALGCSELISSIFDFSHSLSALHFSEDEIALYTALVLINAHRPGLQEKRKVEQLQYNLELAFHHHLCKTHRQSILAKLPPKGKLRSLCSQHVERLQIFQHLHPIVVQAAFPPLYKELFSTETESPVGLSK

Structure (SMILES): CCn1nc(C(=O)NC[C@]2(O)CC[C@@H](S(N)(=O)=O)CC2)c(C)c1-c1ccc(C[C@H](C)C(F)(F)F)cc1OC(F)F (single isomer, unassigned) [Example 61, 5-(2-(difluoromethoxy)-4-((S*)-3,3,3-trifluoro-2-methylpropyl)phenyl)-1-ethyl-N-(((1s,4R)-1-hydroxy-4-sulfamoylcyclohexyl)methyl)-4-methyl-1H-pyrazole-3-carboxamide]
Kd ([1]; ThermoFluor® Assay, Kd): 0.0065 µM | inhibition at 1 µM (full-length human RORγt; HEK-293T, 1 μM compound concentration (footnote ***), read-out: RORγt (FL) Reporter Assay A or B, % inhibition): 130% | IC50 (full-length human RORγt): 0.068 µM

Structure (SMILES): CCS(=O)(=O)[C@H]1CC[C@H](CNC(=O)c2nn(C)c(-c3ccc(CC(C)(C)C(F)(F)F)cc3OC(F)F)c2Cl)CC1 [Example 156, 4-Chloro-5-(2-(difluoromethoxy)-4-(3,3,3-trifluoro-2,2-dimethylpropyl)phenyl)-N-(((1r,4r)-4-(ethylsulfonyl)cyclohexyl)methyl)-1-methyl-1H-pyrazole-3-carboxamide]
Kd [1, 2]: 0.0015 µM | inhibition at […] (full-length human RORγt; HEK-293T, 0.33 μM compound concentration (footnote *****), read-out: RORγt (FL) Reporter Assay A or B, % inhibition): 89% | IC50 (full-length human RORγt): 0.02 µM

Structure (SMILES): CCn1nc(C(=O)NC[C@H]2CC[C@H](S(C)(=O)=O)CC2)c(Cl)c1-c1ccc(NCC(F)(F)F)cc1OC [Example 25, 4-Chloro-1-ethyl-5-(2-methoxy-4-((2,2,2-trifluoroethyl)amino)phenyl)-N-(((1r,4r)-4-(methylsulfonyl)cyclohexyl)methyl)-1H-pyrazole-3-carboxamide]
Kd [1, 2]: 0.031 µM | inhibition at 6 µM (full-length human RORγt; HEK-293T, read-out: RORγt (FL) Reporter Assay A or B, % inhibition @ 6 μM, 6 μM compound concentration): 105% | IC50 (full-length human RORγt): 0.12 µM

Structure (SMILES): CCn1nc(C(=O)NC[C@]2(O)CC[C@@H](S(C)(=O)=O)CC2)c(Cl)c1-c1ccc(CCC(F)(F)F)cc1C(F)(F)F [Example 170, 4-Chloro-1-ethyl-N-(((1s,4s)-1-hydroxy-4-(methylsulfonyl)cyclohexyl)methyl)-5-(2-(trifluoromethyl)-4-(3,3,3-trifluoropropyl)phenyl)-1H-pyrazole-3-carboxamide]
inhibition at 2 µM (full-length human RORγt; [3]): 5% | IC50 (full-length human RORγt): > 2 µM

Structure (SMILES): [2H]C([2H])([2H])Oc1cc(CC(C)(C)C(F)(F)F)ccc1-c1c(Cl)c(C(=O)NC[C@H]2CC[C@H](S(C)(=O)=O)CC2)nn1CC [Example 193, 4-Chloro-1-ethyl-5-(2-(methoxy-d3)-4-(3,3,3-trifluoro-2,2-dimethylpropyl)phenyl)-N-(((1r,4r)-4-(methylsulfonyl)cyclohexyl)methyl)-1H-pyrazole-3-carboxamide]
inhibition at 0.67 µM (full-length human RORγt; [3]): 93%

Structure (SMILES): CCn1nc(C(=O)NC[C@H]2CC[C@H](S(C)(=O)=O)CC2)c(Cl)c1-c1ccc(OCC2CC2(F)F)cc1OC (single isomer, unassigned) [Example 211, 4-Chloro-5-(4-(((R*)-2,2-difluorocyclopropyl)methoxy)-2-methoxyphenyl)-1-ethyl-N-(((1r,4R)-4-(methylsulfonyl)cyclohexyl)methyl)-1H-pyrazole-3-carboxamide]
inhibition at 2 µM (full-length human RORγt; [3]): 66%

Second part, the molecule after the results:

Kd ([1]; ThermoFluor® Assay, Kd): 0.0024 µM | inhibition at 3 µM (full-length human RORγt; HEK-293T, 3 μM compound concentration (footnote *), read-out: RORγt (FL) Reporter Assay A or B, % inhibition): 109% | IC50 (full-length human RORγt): 0.015 µM
Structure (SMILES): CCn1nc(C(=O)NC[C@]2(O)CC[C@@H](S(C)(=O)=O)C[C@H]2O)c(C)c1-c1ccc(C[C@@H](C)C(F)(F)F)cc1OC(F)F (stereo in doubt) [Example 140, 5-(2-(Difluoromethoxy)-4-((R*)-3,3,3-trifluoro-2-methylpropyl)phenyl)-N-(((1R*,2R*,4R*)-1,2-dihydroxy-4-(methylsulfonyl)cyclohexyl)methyl)-1-ethyl-4-methyl-1H-pyrazole-3-carboxamide]

Kd [1, 2]: 0.0038 µM | inhibition at 0.67 µM (full-length human RORγt; [3]): 102% | IC50 (full-length human RORγt): 0.018 µM
Structure (SMILES): CCn1nc(C(=O)NC[C@H]2CC[C@H](S(C)(=O)=O)CC2)c(Cl)c1-c1ccc(N[C@H](C)C(F)(F)F)cc1Cl [Example 176, 4-Chloro-5-(2-chloro-4-(((R)-1,1,1-trifluoropropan-2-yl)amino)phenyl)-1-ethyl-N-(((1r,4R)-4-(methylsulfonyl)cyclohexyl)methyl)-1H-pyrazole-3-carboxamide]
